Measurements reported in ChEMBL document CHEMBL4732046, “A red-light-activated sulfonamide porphycene for highly efficient photodynamic therapy against hypoxic tumor” (Eur J Med Chem, 2021).
Activity calls are given as the source filed them. No cut-off for these calls is given here.

Tests used:
B16 [1] = test: Photocytotoxicity against mouse B16 cells assessed as reduction in cell viability irradiated with 640 +/- 15 nm red LED for 4 hrs measured after 24 hrs under hypoxic condition by MTT assay; assay type: functional, cell-based; conditions: B16, light or radiation study
A-375 [2] = test: Induction of morphological changes in human A-375 cells assessed as chromatin condensation at 100 to 300 nM incubated for 24 hrs by Hoechst 33258 staining based assay; assay type: functional, cell-based; conditions: dose 100-300 nM
A-375 [3] = test: Induction of apoptosis in human A-375 cells assessed as decrease in Bcl2 level at 100 to 300 nM irradiated with 640 +/- 15 nm red LED for 1 hrs measured after 24 hrs by Western blot analysis; assay type: functional, cell-based; conditions: dose 100-300 nM
B16 [4] = test: Induction of apoptosis in mouse B16 cells assessed as decrease in Bid level at 200 to 400 nM irradiated with 640 +/- 15 nm red LED for 1 hrs measured after 24 hrs by Western blot analysis; assay type: functional, cell-based; conditions: dose 200-400 nM
B16 [5] = test: Induction of apoptosis in mouse B16 cells assessed as increase in cytochrome c level at 200 to 400 nM irradiated with 640 +/- 15 nm red LED for 1 hrs measured after 24 hrs by Western blot analysis; assay type: functional, cell-based; conditions: dose 200-400 nM
A-375 [6] = test: (§1) Antitumor activity against human A-375 cells xenografted in BALB/c mouse assessed as tumor growth inhibition at 50 uM, IT once every 2 days for 2 weeks followed every dosing irradiated with 640 +/- 15 nm red LED for 4 hrs; assay type: functional, cell-based
A-375 [7] = test: Antitumor activity against human A-375 cells xenografted in BALB/c mouse assessed as reduction in tumor volume at 50 uM, IT once every 2 days for 2 weeks followed every dosing irradiated with 640 +/- 15 nm red LED for 4 hrs; assay type: functional, cell-based
[8] = Toxicity in BALB/c mouse xenografted with human A-375 cells assessed as body weight at 50 uM, IT once every 2 days for 2 weeks followed every dosing irradiated with 640 +/- 15 nm red LED for 4 hrs; conditions: in vivo, other, 336 h
[9] = Toxicity in C57BL/6 mouse model assessed as effect on spleen treated intratumorally once every 2 days for 2 weeks followed every dosing irradiated with 640 +/- 15 nm red LED for 4 hrs measured upto 28 days by H and E staining dependent light microscopy based histopathological analysis; assay type: tissue-based; conditions: in vivo, other, time <=28 day
[10] = Toxicity in C57BL/6 mouse model assessed as change in white blood cell count measured after 14 days; assay type: tissue-based; conditions: 336 h, time 14 day
[11] = Toxicity in C57BL/6 mouse model assessed as change in platelet count measured after 14 days; conditions: 336 h, time 14 day
[12] = Toxicity in C57BL/6 mouse assessed as effect on serum creatinine level measured upto 14 days; conditions: in vivo, 336 h, time <=14 day
[13] = Drug uptake in mouse B16 cells incubated for 24 hrs in presence of 2-deoxyglucose and sodium azide by mito-tracker green based confocal microscopic method; assay type: ADME, cell-based; conditions: b16, 24 h
A-375 [14] = test: as §1, with “inhibition by measuring nuclear pyknosis treated” for “inhibition”, “high dose intratumorally” for “50 uM, IT”, “hrs measured after 14 days treatment” for “hrs”; assay type: functional, cell-based; conditions: time 14.0 day

SMILES: CC(C)(C)C1=Cc2nc1ccc1[nH]c(cc1S(=O)(=O)NCCOCCO)c1nc(ccc3[nH]c2cc3C(C)(C)C)C(C(C)(C)C)=C1
- DC50 (B16 [1]): 360 nM
- Activity (A-375 [2]): Active
- Activity (A-375 [3]): Active
- Activity (B16 [4]): Active
- Activity (B16 [5]): Active
- Activity (A-375 [6]): Active
- Activity (A-375 [7]): Active
- Activity [8]: Non-Toxic
- Activity [9]: Non-Toxic
- Activity [10]: Non-Toxic
- Activity [11]: Non-Toxic
- Activity [12]: Non-Toxic
- Drug uptake [13]: Not Active
- Activity (A-375 [14]): Active
